Patent US20050256003A1, “Novel herbicides” (priority 2002, published 2005)

Tested on: monocotyledonous and dicotyledonous test plants
Test: Post-emergence herbicidal action
Type: in vivo
Design: key: 10=total damage; 0=no action; Ratings of from 10 to 7 (especially from 10 to 8) indicate good to very good herbicidal action
Settings: about 18 days, rating 0-10
Protocol: Post-Emergence Herbicidal Action
In a greenhouse, monocotyledonous and dicotyledonous test plants are grown in standard soil in plastic pots and at the 4- to 6-leaf stage are sprayed with an aqueous suspension of the test compounds of formula I prepared from a 25% wettable powder (Example F3, b) according to WO 97/34485) or with an emulsion of the test compounds of formula I prepared from a 25% emulsifiable concentrate (Example F1, c) according to WO 97/34485), in a concentration corresponding to 125 g or 250 g of active ingredient/ha (500 litres of water/ha). The test plants are then grown on in a greenhouse under optimum conditions. After a test duration of about 18 days, the test is evaluated in accordance with a scale of nine ratings (10=total damage, 0=no action). Ratings of from 10 to 7 (especially from 10 to 8) indicate good to very good herbicidal action.

| SMILES | Post-emergence action, Amaranthus (250 g a.i./ha) | Post-emergence action, Chenopodium (250 g a.i./ha) | Post-emergence action, Echinochloa (250 g a.i./ha) | Post-emergence action, Euphorbia (250 g a.i./ha) | Post-emergence action, Ipomea (250 g a.i./ha) | Post-emergence action, Sinapis (250 g a.i./ha) | Post-emergence action, Stellaria (250 g a.i./ha) | Post-emergence action, Xanthium (250 g a.i./ha) | Post-emergence action, Amaranthus (125 g a.i./ha) | Post-emergence action, Chenopodium (125 g a.i./ha) | Post-emergence action, Echinochloa (125 g a.i./ha) | Post-emergence action, Euphorbia (125 g a.i./ha) | Post-emergence action, Ipomea (125 g a.i./ha) | Post-emergence action, Sinapis (125 g a.i./ha) | Post-emergence action, Stellaria (125 g a.i./ha) | Post-emergence action, Xanthium (125 g a.i./ha) |
| --- | --- | --- | --- | --- | --- | --- | --- | --- | --- | --- | --- | --- | --- | --- | --- | --- |
| COc1nn(Cc2nc(C(F)(F)F)ccc2C(=O)c2cnn(C)c2O)c(=O)n1C [Compound B1.004] | 8 | 9 | 8 | 9 | 8 | 10 | 8 | 9 | – | – | – | – | – | – | – | – |
| CCOc1nn(Cc2nc(C(F)(F)F)ccc2C(=O)c2cnn(C)c2O)c(=O)n1C [Compound B1.005] | 9 | 9 | 4 | 9 | 8 | 9 | 8 | 6 | – | – | – | – | – | – | – | – |
| Cc1nn(Cc2nc(C(F)(F)F)ccc2C(=O)C2=C(O)C3CCC(C3)C2=O)c(=O)o1 (centres unmarked) [Compound A6.097] | 7 | 9 | 7 | 7 | 7 | 8 | 9 | 7 | – | – | – | – | – | – | – | – |
| COc1nn(Cc2nc(C(F)(F)F)ccc2C(=O)c2cnn(C)c2O)c(=O)n1C1CC1 [Compound B1.039] | 6 | 8 | 9 | 9 | 8 | 9 | 9 | 8 | – | – | – | – | – | – | – | – |
| Cn1ncc(C(=O)c2ccc(C(F)(F)F)nc2Cn2c(=O)oc3cc(Cl)ccc32)c1O [Compound B1.194] | 9 | 9 | 9 | 9 | 7 | 7 | 8 | 9 | – | – | – | – | – | – | – | – |
| CCOc1nn(Cc2nc(C(F)(F)F)ccc2C(=O)c2cnn(C)c2O)c(=O)n1CC [Compound B1.050] | 9 | 9 | 4 | 9 | 7 | 9 | 7 | 8 | – | – | – | – | – | – | – | – |
| O=C1CCCC(O)=C1C(=O)c1ccc(C(F)(F)F)nc1Cn1sc(Cl)cc1=O [Compound A1.115] | 9 | 9 | 7 | 8 | 7 | 3 | 9 | 9 | – | – | – | – | – | – | – | – |
| COc1nn(Cc2nc(C(F)(F)F)ccc2C(=O)C2=C(O)CCCC2=O)c(=O)n1C [Compound A1.019] | 9 | 9 | 8 | 9 | 9 | 8 | 8 | 9 | – | – | – | – | – | – | – | – |
| Cc1nn(Cc2nc(C(F)(F)F)ccc2C(=O)C2=C(O)C(C)(C)CC(C)(C)C2=O)c(=O)o1 [Compound A7.008] | 5 | 9 | 7 | 7 | 7 | 9 | 9 | 8 | – | – | – | – | – | – | – | – |
| Cn1c(C(F)(F)F)nn(Cc2nc(C(F)(F)F)ccc2C(=O)C2=C(O)CCCC2=O)c1=O [Compound A1.007] | 9 | 10 | 8 | 4 | 9 | 8 | 7 | 9 | – | – | – | – | – | – | – | – |
| Cn1c(C(F)(F)F)nn(Cc2nc(C(F)(F)Cl)ccc2C(=O)C2=C(O)CCCC2=O)c1=O [Compound A1.001, 2-[6-(Chloro-difluoro-methyl)-3-(2-hydroxy-6-oxo-cyclohex-1-ene-carbonyl)-pyridin-2-ylmethyl]-4-methyl-5-trifluoromethyl-2.4-dihydro-[1.2.4]triazol-3-one] | – | – | – | – | – | – | – | – | 8 | 9 | 4 | 4 | 8 | 8 | 8 | 8 |
| COc1nn(Cc2nc(C(F)(F)F)ccc2C(=O)C2=C(O)C3CCC(C3)C2=O)c(=O)s1 (centres unmarked) [Compound A6.091] | 8 | 9 | 9 | 8 | 8 | 8 | 9 | 9 | – | – | – | – | – | – | – | – |
| Cc1nn(CCOCc2nc(C(F)(F)F)ccc2C(=O)C2=C(O)C3CCC(C3)C2=O)c(=O)s1 (centres unmarked) [Compound A6.082] | 8 | 9 | 7 | 7 | 8 | 5 | 9 | 7 | – | – | – | – | – | – | – | – |
| CCN1C(=O)N(Cc2nc(C(F)(F)F)ccc2C(=O)C2=C(O)C(C)(C)C(=O)C(C)(C)C2=O)C(=O)C1C (centres unmarked) [Compound A8.174] | 8 | 9 | 0 | 7 | 8 | 7 | 7 | 7 | – | – | – | – | – | – | – | – |
| CCN1C(=O)N(Cc2nc(C(F)(F)F)ccc2C(=O)C2=C(O)CCCC2=O)C(=O)C1C (racemic) [Compound A1.181] | 9 | 8 | 4 | 8 | 8 | 5 | 7 | 8 | – | – | – | – | – | – | – | – |
| CCOc1nn(Cc2nc(C(F)(F)F)ccc2C(=O)c2cnn(C)c2O)c(=O)n1C1CC1 [Compound B1.056] | 9 | 8 | 9 | 9 | 10 | 8 | 7 | 0 | – | – | – | – | – | – | – | – |
